This is an account of results in US7259173B2, “Derivatives of 3-phenyl-n-(2-(4-benzyl)-piperidin-1-yl)-ethyl)-acrylamid with ccr-3-receptor antagonistic activity for use in the treatment of inflammations and allergic conditions” (Novartis AG, priority 2001, dated 2007).

The assay has as its target T1, human CCR-3 (Homo sapiens, UniProt P51677).
T1 construct: expressed in transfected cells; host or cells: rat basophil leukemia (RBL-2H3) cells, membranes
T1 sequence (P51677 1-355): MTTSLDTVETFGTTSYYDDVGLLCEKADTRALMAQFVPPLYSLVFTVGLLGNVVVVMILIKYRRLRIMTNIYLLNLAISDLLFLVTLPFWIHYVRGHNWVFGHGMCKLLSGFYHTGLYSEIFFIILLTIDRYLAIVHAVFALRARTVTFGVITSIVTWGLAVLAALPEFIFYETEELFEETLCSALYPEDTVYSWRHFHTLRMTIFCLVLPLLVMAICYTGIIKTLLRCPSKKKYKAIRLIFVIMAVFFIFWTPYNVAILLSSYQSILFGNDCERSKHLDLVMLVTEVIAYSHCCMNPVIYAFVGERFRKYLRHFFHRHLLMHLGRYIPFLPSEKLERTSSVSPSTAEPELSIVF
Kind of assay: CCR-3 Binding Assay ([125I]-human eotaxin SPA). The conditions noted are these: inhibition of [125I]-human eotaxin binding to human CCR-3, membranes of RBL-2H3 cells expressing CCR3. The method, then:
In this assay the effect of agents of the invention on the binding of human eotaxin to human CCR-3 is determined. Recombinant cells expressing human CCR-3 are captured by wheatgerm agglutinin (WGA) polyvinyltoluidene (PVT) SPA beads (available from Amersham), through a specific interaction between the WGA and carbohydrate residues of glycoproteins on the surface of the cells. [^125I]-human eotaxin (available from Amersham) binds specifically to CCR-3 receptors bringing the [^125I]-human eotaxin in close proximity to the SPA beads. Emitted â-particles from the [^125I]-human eotaxin excite, by its proximity, the fluorophore in the beads and produce light.
Preparation of Assay Buffer: 5.96 g HEPES and 7.0 g sodium chloride are dissolved in distilled water and 1M aqueous CaCl2 (1 mL) and 1M aqueous MgCl2 (5 mL) are added. The pH is adjusted to 7.6 with NaOH and the solution made to a final volume of 1 L using distilled water. 5 g bovine serum albumin and 0.1 g sodium azide are then dissolved in the solution and the resulting buffer stored at 4° C. A Complete™ protease inhibitor cocktail tablet (available from Boehringer) is added per 50 mL of the buffer on the day of use.
Preparation of Homogenisation Buffer: Tris-base (2.42 g) is dissolved in distilled water, the pH of the solution is adjusted to 7.6 with hydrochloric acid and the solution is diluted with distilled water to a final volume of 1 L. The resulting buffer is stored at 4° C. A Complete™ protease inhibitor cocktail tablet is added per 50 mL of the buffer on the day of use.
Preparation of membranes: Confluent rat basophil leukemia (RBL-2H3) cells stably expressing CCR3 are removed from tissue culture flasks using enzyme-free cell dissociation buffer and resuspended in phosphate-buffered saline. […]
The assay is performed in a final volume of 250 μL per well of an Optiplate (ex Canberra Packard). […] The resulting scintillations are counted using a Canberra Packard TopCount, each well being counted for 1 minute. […]
Regarding `COc1ccc(C#N)cc1/C=C/C(=O)N[C@H](CO)CN1CCC(Cc2ccc(Cl)cc2)CC1` [Example 2, (E)-3-(5-Cyano-2-methoxy-phenyl)-N-{(S)-2-[4-(4-chloro-benzyl)-piperidin-1-yl]-1-hydroxymethyl-ethyl}-acrylamide], the 50% inhibitory concentration (IC50) came out at 6 nM.

Regarding `COc1ccc(Br)cc1/C=C/C(=O)NCCN1CCC(Cc2ccc(F)cc2)CC1` [Example 3, (E)-3-(5-Bromo-2-methoxy-phenyl)-N-{2-[4-(4-fluoro-benzyl)-piperidin-1-yl]-ethyl}-acrylamide], the concentration for half-maximal inhibition (IC50) is 34.7 nM.

`COc1ccc(C#N)cc1/C=C/C(=O)N[C@H](CO)CN1CCC(Cc2ccc(F)cc2)CC1` [Example 4, (E)-3-(5-Cyano-2-methoxy-phenyl)-N-{(S)-2-[4-(4-fluoro-benzyl)-piperidin-1-yl]-1-hydroxymethyl-ethyl}-acrylaniide] displayed an IC50 of 6 nM.

A word on the IC50: it is the concentration that inhibits the measured activity by half. Read a high IC50 as a need for much substance.
